Data: PubChem BioAssay (NCI)
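Tested at 5 concentrations; 48 h exposure; 96-well plates; endpoints linearly interpolated, else capped at highest concentration. Abbreviation: GI50, concentration required for 50% inhibition of growth. Definition used: TGI = concentration required for complete inhibition of growth.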

What was measured:
Experiment in all cases: NCI-60 cell line screen, 48 h
HS 578T breast = test system: HS 578T breast
OVCAR-3 ovarian = test system: OVCAR-3 ovarian
MALME-3M melanoma = test system: MALME-3M melanoma
PC-3 prostate = test system: PC-3 prostate
HL-60(TB) leukemia = test system: HL-60(TB) leukemia
BT-549 breast = test system: BT-549 breast
SNB-19 CNS = test system: SNB-19 CNS
NCI-H522 lung = test system: NCI-H522 lung
NCI-H460 lung = test system: NCI-H460 lung
SN12C renal = test system: SN12C renal

SMILES	TGI (HS 578T breast) [µM]	TGI (OVCAR-3 ovarian) [µM]	TGI (MALME-3M melanoma) [µM]	TGI (PC-3 prostate) [µM]	TGI (HL-60(TB) leukemia) [µM]	TGI (BT-549 breast) [µM]	TGI (SNB-19 CNS) [µM]	TGI (NCI-H522 lung) [µM]	TGI (NCI-H460 lung) [µM]	TGI (SN12C renal) [µM]	GI50 (BT-549 breast) [µM]
N=C(N)SCCON1C(=O)c2ccccc2C1=O	> 100	> 100	> 100	> 100	> 100	> 100	> 100	> 100	> 100	> 100	–
Cn1ccnc1S/C(=C\C=C(C#N)C#N)c1ccc(Cl)cc1	13.6	5.29	3.27	9.22	3.42	> 28.7	10.8	11.5	27.2	> 25.7	5.14
CC(=O)O/C=C\OC1CCCC1(c1ccccc1)c1ccccc1 (centres undefined)	9.8	7.59	4.61	9.15	2.89	4.66	26.3	23.3	26.6	10.3	–
CC(C)Oc1c(-c2c(OC(C)C)c(=O)c2=O)c(=O)c1=O	> 67	–	4	> 100	> 100	> 61.3	> 100	> 27.7	> 100	> 62.7	–
COC(=O)c1cc(C)ccc1CC(Cc1cccc(C)c1)C(=O)OC (centres undefined)	> 100	> 100	> 100	> 100	> 100	> 100	> 100	> 100	> 100	> 100	–
COC(=O)Cc1ccc2c(c1)Sc1ccc(CC(=O)OC)cc1N2C	> 89.3	> 100	80.6	> 100	> 93.3	91.7	> 100	58.1	> 100	> 100	–
CCN(CC)Cc1nc2sc3c(c2c(=O)n1-c1ccccc1)CCCC3	93.6	34.8	45.5	34	> 100	53.6	> 100	44.9	40.8	37.8	–
O=C(NCCN(CCNC(=O)c1cccc(=O)n1O)CCN(CCNC(=O)c1cccc(=O)n1O)CCNC(=O)c1cccc(=O)n1O)c1cccc(=O)n1O	> 100	> 100	> 100	> 100	> 100	> 100	> 100	> 100	> 100	> 100	–
CN1CC2=C(OC(N)=C(C#N)C2c2cccs2)/C(=C/c2cccs2)C1 (centres undefined)	> 100	56.5	38.4	> 60.5	12	> 100	> 100	> 53	58.9	> 100	–
CSc1nc(NC2CCCC2)c2cc[nH]c2n1	> 100	> 100	> 100	> 100	47.4	> 100	> 100	> 100	> 100	> 100	–
CC(C)(CN)CN	> 100	> 100	> 100	> 100	> 100	> 100	> 100	> 100	> 100	> 100	–
CCNC(=O)Nc1cccc(C)n1	> 100	> 100	> 100	> 100	> 100	> 100	> 100	> 100	> 100	> 100	–
Cc1nc2ccc(S(=O)(=O)Nc3ccc(Cl)cc3)cc2c(=O)n1NC(=O)CNc1ccc(Cl)cc1	> 100	> 100	> 100	> 100	> 100	> 100	> 100	> 100	> 100	> 100	–
COc1ccc2c(c1)OC(c1cccnc1)C(c1ccccc1)C2=O (centres undefined)	> 100	> 100	> 100	> 100	> 100	> 100	> 100	> 100	> 100	> 100	–
CN(C)c1ccc(N2C(=S)SC(=Nc3ccccc3)C2=Nc2ccccc2)cc1	> 100	> 100	> 100	> 100	> 100	> 100	> 100	> 100	> 100	> 100	–
CCOC(C[Se]CC(OCC)OCC)OCC	45.9	> 100	> 100	> 100	76.5	94	> 100	> 100	> 100	–	–
